Values quoted from earlier work as cited in article PMC2033546, “Effects of somatostatin analogue RC-160 and bombesin/gastrin-releasing peptide antagonists on the growth of human small-cell and non-small-cell lung carcinomas in nude mice” (British Journal of Cancer, 1994).

How the values were obtained:
SCLC = details: in vitro; ref Carney et al., 1987; cited from earlier work
Text: (§1) Br. J. Cancer (1994). 70, 886 892 ? Macmillan Press Ltd..

SCLC xenografts = details: nude mice; ref Alexander et al., 1988; cited from earlier work
Text: as §1

EGF receptors = details: various cancer lines and cancer specimens; ref Liebow et al., 1992; cited from earlier work
Text: as §1

In the case of Bombesin, the “Effect on clonal growth of SCLC and DNA synthesis (in words)” value (SCLC) is listed as “stimulates the clonal growth of SCLC and DNA synthesis in vitro”, the “Effect on growth of SCLC xenografts (in words)” value (SCLC xenografts) is listed as “stimulates” and the “Effect on phosphorylation of EGF receptors (in words)” value (EGF receptors) is listed as “enhance the phosphorylation of EGF receptors”.
